Experimental data: patent publication US8232287B2, “Pyrimidyl indoline compound” (Daiichi Sankyo Company, Limited, priority 2007, dated 2012)

tested on: Mice C57/BL6J; assay: Oral glucose tolerance test (oGTT) using mice; type: in vivo; conditions: Mus musculus, 2 h; blood glucose AUC vs vehicle-administered group; fasted male C57/BL6J mice; 1 mg/ml suspension in 0.5% methylcellulose given orally 30 min before oral glucose load; plasma glucose at pre, 15, 30, 60, 120 min; read-out: Rate of decrease in AUC (%)
Experimental: Oral Glucose Tolerance Test (oGTT) Using Mice
2.0 to 8.0 mg of a test compound was weighed and then placed in an agate mortar. While the compound was pulverized, a 0.5% methylcellulose solution was added thereto to prepare a 1 mg/ml suspension. Mice C57/BL6J (6- to 8-week-old male) were purchased from Charles River Laboratories Japan Inc. and raised in a cage until they became 9- to 13-week-old. The mice were fasted after 5 to 6 p.m. of the day before the test. On the test day, blood was collected from the tail vein, and the preceding prepared suspension was orally administered to each of the mice. Thirty minutes after administration, blood was further collected from the tail vein (plasma glucose level in this blood was used as a pre-value), and a 20 to 30% glucose solution was then orally administered thereto at a dose of 10 ml/kg for glucose load. After the glucose load, blood was further collected from the tail vein at time points 15, 30, 60, and 120 minutes. The collected blood was centrifuged to separate plasma. The pre-value and plasma glucose levels at 15, 30, 60, and 120 minutes after the glucose load were measured using Glucoroder GXT (Shino-Test Corp.), and the rate of decrease in blood glucose AUC (%) from a vehicle-administered group was calculated. To this vehicle-administered group, a 0.5% methylcellulose solution was administered instead of the suspension of the compound.

SMILES	inhibition in vivo at 1000 µg/mL
CC(C)OC(=O)N1CC[C@H](Oc2cc(N3CCc4cc(S(C)(=O)=O)ccc43)ncn2)[C@H](F)C1 (relative stereo) [Example 117, isopropyl cis-3-fluoro-4-[6-(5-methanesulfonyl-2,3-dihydro-indol-1-yl)-pyrimidin-4-yloxy]-piperidine-1-carboxylate]	27%
CC(C)(C)OC(=O)N1CCC(Oc2cc(N3CCc4cc(S(C)(=O)=O)ccc43)ncn2)CC1 [Example 1, tert-butyl 4-({6-[5-(methylsulfonyl)indolin-1-yl]pyrimidin-4-yl}oxy)piperidine-1-carboxylate]	28%
CC(C)OC(=O)N1CCC(Oc2cc(N3CCc4cc(S(C)(=O)=O)ccc43)ncn2)CC1 [Example 2, isopropyl 4-({6-[5-(methylsulfonyl)indolin-1-yl]pyrimidin-4-yl}oxy)piperidine-1-carboxylate]	22%
CCS(=O)(=O)c1ccc2c(c1)CCN2c1cc(OC2CCN(C(=O)OCC(C)C)CC2)ncn1 [Example 22, isobutyl 4-({6-[5-(ethylsulfonyl)indolin-1-yl]pyrimidin-4-yl}oxy)piperidine-1-carboxylate]	21%
CCS(=O)(=O)c1ccc2c(c1)CCN2c1cc(OC2CCN(C(=O)OC(C)C)CC2)ncn1 [Example 31, isopropyl 4-({6-[5-(ethylsulfonyl)indolin-1-yl]pyrimidin-4-yl}oxy)piperidine-1-carboxylate]	20%
CS(=O)(=O)c1ccc2c(c1)CCN2c1cc(OC2CCN(C(=O)OCC3CC3)CC2)ncn1 [Example 44, cyclopropylmethyl 4-({6-[5-(methylsulfonyl)indolin-1-yl]pyrimidin-4-yl}oxy)piperidine-1-carboxylate]	18%
CCS(=O)(=O)c1ccc2c(c1)CCN2c1cc(OC2CCN(C(=O)OCC(F)F)CC2)ncn1 [Example 60, 2,2-difluoroethyl 4-({6-[5-(ethylsulfonyl)indolin-1-yl]pyrimidin-4-yl}oxy)piperidine-1-carboxylate]	22%
C[S+]([O-])c1ccc2c(c1)CCN2c1cc(OC2CCN(C(=O)OC(C)(C)C)CC2)ncn1 (stereo not drawn) [Example 80, tert-butyl 4-({6-[5-(methylsulfinyl)indolin-1-yl]pyrimidin-4-yl}oxy)piperidine-1-carboxylate]	19%
COc1c(OC2CCN(C(=O)OC(C)C)CC2)ncnc1N1CCc2cc(S(C)(=O)=O)ccc21 [Example 83, isopropyl 4-({5-methoxy-6-[5-(methylsulfonyl)indolin-1-yl]pyrimidin-4-yl}oxy)piperidine-1-carboxylate]	20%
CC(C)(C)OC(=O)N1CCC(Oc2cc(N3CCc4cc(S(=O)(=O)CCF)ccc43)ncn2)CC1 [Example 85, tert-butyl 4-[(6-{5-[(2-fluoroethyl)sulfonyl]indolin-1-yl}pyrimidin-4-yl)oxy]piperidine-1-carboxylate]	27%
CC(C)CC(=O)N1CCC(Oc2cc(N3CCc4cc(S(C)(=O)=O)ccc43)ncn2)CC1 [Example 92, 1-(6-{[1-(3-methylbutanoyl)piperidin-4-yl]oxy}pyrimidin-4-yl)-5-(methylsulfonyl)indoline]	16%
CS(=O)(=O)c1ccc2c(c1)CCN2c1cc(OC2CCN(C(=O)Oc3ccc(F)cc3)CC2)ncn1 [Example 93, 4-fluorophenyl 4-({6-[5-(methylsulfonyl)indolin-1-yl]pyrimidin-4-yl}oxy)piperidine-1-carboxylate]	15%
CS(=O)(=O)c1ccc2c(c1)CCN2c1cc(OC2CCN(C(=O)OCC(F)(F)F)CC2)ncn1 [Example 104, 2,2,2-trifluoroethyl 4-({6-[5-(methylsulfonyl)indolin-1-yl]pyrimidin-4-yl}oxy)piperidine-1-carboxylate]	10%
C[S+]([O-])c1ccc2c(c1)CCN2c1cc(OC2CCN(C(=O)OCC(F)(F)F)CC2)ncn1 (stereo not drawn) [Example 116, 2,2,2-trifluoroethyl 4-({6-[5-(methylsulfinyl)indolin-1-yl]pyrimidin-4-yl}oxy)piperidine-1-carboxylate]	17%
C[S+]([O-])c1ccc2c(c1)CCN2c1cc(OC2CCN(C(=O)OCC3CC3)CC2)ncn1 (stereo not drawn) [Example 118, cyclopropylmethyl 4-({6-[5-(methylsulfinyl)indolin-1-yl]pyrimidin-4-yl}oxy)piperidine-1-carboxylate]	16%
